Measurements reported in ChEMBL document CHEMBL1201862, “PubChem BioAssay data set” (2004).
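96-well plates; 48 h exposure; 5 concentrations. Endpoints by linear interpolation between flanking doses. Not reached: highest tested concentration assigned. GI50 marks 50% less growth.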 The source made the active and inactive calls. No stated cut-off is given here; in the data, active = GI50 up to about 1.1 µM and inactive = higher.

Key:
Assay in all cases: DTP human tumour cell line panel, 48 h
MOLT-4 = test system: MOLT-4
PC-3 = test system: PC-3
BT-549 = test system: BT-549
MCF7 = test system: MCF7
OVCAR-8 = test system: OVCAR-8
MDA-N = test system: MDA-N
SK-MEL-2 = test system: SK-MEL-2
SK-MEL-28 = test system: SK-MEL-28
MDA-MB-435 = test system: MDA-MB-435
NCI/ADR-RES = test system: NCI/ADR-RES
CCRF-CEM = test system: CCRF-CEM
RXF 393 = test system: RXF 393
UACC-62 = test system: UACC-62
COLO 205 = test system: COLO 205
LOX IMVI = test system: LOX IMVI
TK-10 = test system: TK-10
SNB-19 = test system: SNB-19
ACHN = test system: ACHN
HCT-116 = test system: HCT-116
IGROV-1 = test system: IGROV-1

CC[C@@]1(O)C(=O)OCc2c1cc1n(c2=O)Cc2c-1nc1ccccc1c2/C=N\NC(=O)C(N)Cc1c[nH]cn1 (stereo partly specified)
GI50 (MOLT-4): 0.0259 µM (active)
GI50 (PC-3): 0.644 µM (active)
GI50 (BT-549): 3.45 µM (inactive)
GI50 (MCF7): 0.0885 µM (active)
GI50 (OVCAR-8): 0.184 µM (active)
GI50 (MDA-N): 1.9 µM (inactive)
GI50 (SK-MEL-2): 7.74 µM (inactive)
GI50 (SK-MEL-28): 1.26 µM (inactive)
GI50 (MDA-MB-435): 1.37 µM (inactive)
GI50 (NCI/ADR-RES): 0.41 µM (active)
GI50 (CCRF-CEM): 0.0214 µM (active)
GI50 (RXF 393): 0.861 µM (active)
GI50 (UACC-62): 0.0723 µM (active)
GI50 (COLO 205): 8.39 µM (inactive)
GI50 (LOX IMVI): 0.131 µM (active)
GI50 (TK-10): 13.3 µM (inactive)
GI50 (SNB-19): 0.0908 µM (active)
GI50 (ACHN): 0.043 µM (active)
GI50 (HCT-116): 0.43 µM (active)
GI50 (IGROV-1): 3.75 µM (inactive)

O=C(Nc1nnc(-c2ccccc2)o1)C(SC(=S)N1CCCCC1)c1ccccc1 (stereo unspecified)
GI50 (MOLT-4): 3.53 µM (inactive)
GI50 (PC-3): 17.5 µM (inactive)
GI50 (BT-549): 14 µM (inactive)
GI50 (MCF7): 23.4 µM (inactive)
GI50 (OVCAR-8): 26.5 µM (inactive)
GI50 (MDA-N): 20.7 µM (inactive)
GI50 (SK-MEL-2): 17.7 µM (inactive)
GI50 (SK-MEL-28): 24.1 µM (inactive)
GI50 (MDA-MB-435): 21.3 µM (inactive)
GI50 (NCI/ADR-RES): 3.93 µM (inactive)
GI50 (CCRF-CEM): 3.35 µM (inactive)
GI50 (RXF 393): 26.3 µM (inactive)
GI50 (COLO 205): 31 µM (inactive)
GI50 (LOX IMVI): 4.16 µM (inactive)
GI50 (TK-10): 56 µM (inactive)
GI50 (SNB-19): 32.1 µM (inactive)
GI50 (ACHN): 15.1 µM (inactive)
GI50 (HCT-116): 13.4 µM (inactive)
GI50 (IGROV-1): 15.9 µM (inactive)

CCOP(=O)(OCC)/C(C#N)=C/c1c(C)[nH]c2ccccc12
GI50 (MOLT-4): > 100 µM (inactive)
GI50 (PC-3): > 100 µM (inactive)
GI50 (BT-549): > 100 µM (inactive)
GI50 (MCF7): > 100 µM (inactive)
GI50 (OVCAR-8): > 100 µM (inactive)
GI50 (MDA-N): > 100 µM (inactive)
GI50 (SK-MEL-28): > 100 µM (inactive)
GI50 (MDA-MB-435): > 100 µM (inactive)
GI50 (NCI/ADR-RES): > 100 µM (inactive)
GI50 (CCRF-CEM): > 100 µM (inactive)
GI50 (RXF 393): > 100 µM (inactive)
GI50 (UACC-62): > 100 µM (inactive)
GI50 (COLO 205): > 100 µM (inactive)
GI50 (LOX IMVI): > 100 µM (inactive)
GI50 (TK-10): > 100 µM (inactive)
GI50 (SNB-19): > 100 µM (inactive)
GI50 (ACHN): > 100 µM (inactive)
GI50 (HCT-116): > 100 µM (inactive)
GI50 (IGROV-1): > 100 µM (inactive)

C=CCn1c(=O)c2ccccc2[n+]2c(C)c(C(=O)OCC)sc12
GI50 (MOLT-4): > 100 µM (inactive)
GI50 (PC-3): > 100 µM (inactive)
GI50 (BT-549): > 100 µM (inactive)
GI50 (MCF7): > 100 µM (inactive)
GI50 (OVCAR-8): > 100 µM (inactive)
GI50 (MDA-N): > 100 µM (inactive)
GI50 (SK-MEL-2): > 100 µM (inactive)
GI50 (SK-MEL-28): > 100 µM (inactive)
GI50 (MDA-MB-435): > 100 µM (inactive)
GI50 (NCI/ADR-RES): > 100 µM (inactive)
GI50 (CCRF-CEM): > 100 µM (inactive)
GI50 (RXF 393): > 100 µM (inactive)
GI50 (UACC-62): > 100 µM (inactive)
GI50 (COLO 205): > 100 µM (inactive)
GI50 (LOX IMVI): > 100 µM (inactive)
GI50 (TK-10): > 100 µM (inactive)
GI50 (SNB-19): > 100 µM (inactive)
GI50 (ACHN): > 100 µM (inactive)
GI50 (HCT-116): > 100 µM (inactive)
GI50 (IGROV-1): > 100 µM (inactive)

COc1cccc(/C=C\c2ccc(O)cc2)c1
GI50 (MOLT-4): 3.6 µM (inactive)
GI50 (PC-3): 11.7 µM (inactive)
GI50 (BT-549): 17.5 µM (inactive)
GI50 (MCF7): 26.1 µM (inactive)
GI50 (OVCAR-8): 12.3 µM (inactive)
GI50 (MDA-N): 21.1 µM (inactive)
GI50 (SK-MEL-2): 25.8 µM (inactive)
GI50 (SK-MEL-28): 40.1 µM (inactive)
GI50 (MDA-MB-435): 19.5 µM (inactive)
GI50 (NCI/ADR-RES): 6.12 µM (inactive)
GI50 (RXF 393): 19.5 µM (inactive)
GI50 (UACC-62): 10.2 µM (inactive)
GI50 (COLO 205): 48.1 µM (inactive)
GI50 (LOX IMVI): 14.9 µM (inactive)
GI50 (TK-10): 52.4 µM (inactive)
GI50 (SNB-19): 29.7 µM (inactive)
GI50 (ACHN): 3.64 µM (inactive)
GI50 (HCT-116): 22.7 µM (inactive)
GI50 (IGROV-1): 26.7 µM (inactive)

COc1cc2ccccc2oc1=O
GI50 (MOLT-4): 67.3 µM (inactive)
GI50 (PC-3): > 100 µM (inactive)
GI50 (BT-549): 19.8 µM (inactive)
GI50 (MCF7): 54.8 µM (inactive)
GI50 (OVCAR-8): > 100 µM (inactive)
GI50 (MDA-N): > 100 µM (inactive)
GI50 (SK-MEL-2): 23.3 µM (inactive)
GI50 (SK-MEL-28): 84.5 µM (inactive)
GI50 (MDA-MB-435): > 100 µM (inactive)
GI50 (NCI/ADR-RES): 97.5 µM (inactive)
GI50 (CCRF-CEM): 41.9 µM (inactive)
GI50 (RXF 393): 0.33 µM (active)
GI50 (UACC-62): 24 µM (inactive)
GI50 (COLO 205): > 100 µM (inactive)
GI50 (LOX IMVI): > 100 µM (inactive)
GI50 (TK-10): 77.6 µM (inactive)
GI50 (SNB-19): > 100 µM (inactive)
GI50 (ACHN): 63 µM (inactive)
GI50 (HCT-116): > 100 µM (inactive)
GI50 (IGROV-1): > 100 µM (inactive)

COc1cccc2c1C(=N)c1c(O)c3c(c(O)c1C2=O)C[C@@](O)(C(C)=O)C[C@@H]3OC1CC(N)C(O)C(C)O1 (stereo partly specified)
GI50 (MOLT-4): 0.000132 µM (active)
GI50 (PC-3): < 0.01 µM (active)
GI50 (BT-549): < 0.01 µM (active)
GI50 (MCF7): 0.805 µM (active)
GI50 (MDA-N): < 0.01 µM (active)
GI50 (SK-MEL-2): 1.48 µM (inactive)
GI50 (SK-MEL-28): 2.3 µM (inactive)
GI50 (MDA-MB-435): < 0.01 µM (active)
GI50 (NCI/ADR-RES): 0.000159 µM (active)
GI50 (CCRF-CEM): 0.0001 µM (active)
GI50 (RXF 393): 1.23 µM (inactive)
GI50 (UACC-62): 0.0094 µM (active)
GI50 (COLO 205): 0.394 µM (active)
GI50 (LOX IMVI): 0.00638 µM (active)
GI50 (TK-10): 1.31 µM (inactive)
GI50 (SNB-19): 0.00811 µM (active)
GI50 (ACHN): 0.244 µM (active)
GI50 (HCT-116): 0.00745 µM (active)
GI50 (IGROV-1): 1.38 µM (inactive)
